Where two headings read alike, the source gives them in different places.
Key:
[1] = target: T1, hGIPR (Homo sapiens, UniProt P48546); assay: Functional cAMP formation (HTRF) in HEK-293 clonal cells expressing hGIPR, 0.1% bovine casein, without or with 1.0% human serum albumin; assay type: cell-based; details: for Emax: percent of maximal response to GIP(1-42)NH2; for EC50: cAMP
T1 construct: expressed in transfected cells
T1 sequence (P48546 22-466): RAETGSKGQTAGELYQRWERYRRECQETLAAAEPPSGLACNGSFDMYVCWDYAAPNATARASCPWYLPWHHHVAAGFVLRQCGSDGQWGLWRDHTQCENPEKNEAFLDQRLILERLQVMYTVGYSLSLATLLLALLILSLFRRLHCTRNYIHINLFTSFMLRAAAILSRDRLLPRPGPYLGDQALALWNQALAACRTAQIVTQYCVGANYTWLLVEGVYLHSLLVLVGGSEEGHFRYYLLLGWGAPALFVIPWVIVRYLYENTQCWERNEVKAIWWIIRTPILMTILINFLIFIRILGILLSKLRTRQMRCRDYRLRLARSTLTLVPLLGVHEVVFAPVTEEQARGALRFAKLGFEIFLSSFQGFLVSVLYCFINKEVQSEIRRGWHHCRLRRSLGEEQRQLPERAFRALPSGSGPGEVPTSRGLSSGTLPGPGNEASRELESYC
Outline: (§1)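 Cells were stimulated with peptide for 30 min at 37° C, then lysed in buffer carrying cAMP-d2 and anti-cAMP Eu3+-cryptate for a competitive HTRF read after at least 60 min at room temperature. The 665/620 nm ratio was converted to nM cAMP against a standard curve.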

[2] = target: T2, human GIP receptor (hGIPR) (Homo sapiens, UniProt P48546); assay: [125I]-GIP binding, SPA with membranes of CHO cells expressing hGIPR
T2 construct: expressed in transfected cells; crude membranes
T2 sequence (P48546 22-466): T1 sequence (P48546 22-466)
Experimental: Two methods are used for the preparation of crude cell membranes.
Method 1: Frozen cell pellets are lysed on ice in hypotonic buffer containing 50 mM Tris HCl, pH 7.5, and Roche Complete™ Protease Inhibitors with EDTA. […] The homogenate is centrifuged at 4° C. at 1100 × g for 10 minutes. The supernatant is collected and stored on ice while the pellets are resuspended in homogenization buffer and rehomogenized as described above. The homogenate is centrifuged at 1100 × g for 10 minutes. The second supernatant is combined with the first supernatant and centrifuged at 35000 × g for 1 hour at 4° C. The resulting membrane pellet is resuspended in homogenization buffer containing protease inhibitors at approximately 1 to 3 mg/mL, quick frozen in liquid nitrogen and stored as aliquots in a -80° C. freezer until use.
The homogenate is centrifuged at 4° C. at 1800 × g for 15 minutes. The supernatant is collected and stored on ice while the pellets are resuspended in homogenization buffer (without DNAse I) and rehomogenized as described above. The homogenate is centrifuged at 1800 × g for 15 minutes. The second supernatant is combined with the first supernatant and centrifuged an additional time at 1800 × g for 15 minutes. The overall supernatant is then centrifuged at 25000 × g for 30 minutes at 4° C. The resulting membrane pellet is resuspended in homogenization buffer (without DNAse I) containing protease inhibitors at approximately 1 to 3 mg/mL and stored as aliquots in a -80° C. freezer until use.
The binding buffer contains 25 mM HEPES, pH 7.4, 2.5 mM CaCl2, 1 mM MgCl2, 0.1% (w/v) bacitracin, 0.003% (w/v) TWEEN®-20, and Roche Complete™ Protease Inhibitors without EDTA. Peptides and GIP are thawed and 3 fold serially diluted in 100% DMSO (10 point concentration response curves). […] Plates are sealed and mixed on a plate shaker (setting 6) for 1 minute and read with a PerkinElmer Trilux MicroBeta® scintillation counter after 2.5 to 12 hours of incubation/settling time at room temperature.
Raw CPM data for concentration curves of peptides, Gcg, GLP-1, or GIP are converted to percent inhibition by subtracting nonspecific binding (binding in the presence of excess unlabeled Gcg, GLP-1, or GIP, respectively) from the individual CPM values and dividing by the total binding signal, also corrected by subtracting nonspecific binding. Data are analyzed using four-parameter (curve maximum, curve minimum, IC50, Hill slope) nonlinear regression routines (Genedata Screener, version 12.0.4, Genedata AG, Basal, Switzerland). […] Values for Ki are reported as the geometric mean, with error expressed as the standard error of the mean (SEM) and n is equal to the number of independent replicates (determined in assays performed on different days). Geometric Means are calculated as follows: […]
The Ki Ratio (Ki for native control peptide/Ki for test compound) at each receptor and each species is calculated. The Ki Ratio is a rapid indication of the apparent affinity of a peptide compared to the native control peptide.
n=⅟x means that only one value out of the total number of replicates (x) is used to express the mean. SEM is only calculated when n=2 or greater non-qualified results exist. Means are expressed as GeoMetric means with the standard error of the mean (SEM) and the number of replicates (n) indicated in parenthesis.

[3] = target: T3, hGCGR (Homo sapiens, UniProt P47871); assay: Functional cAMP formation (HTRF) in HEK-293 clonal cells expressing hGCGR, 0.1% bovine casein, without or with 1.0% human serum albumin; assay type: cell-based; details: cAMP, 37° C.
T3 construct: expressed in transfected cells
T3 sequence (P47871 26-477): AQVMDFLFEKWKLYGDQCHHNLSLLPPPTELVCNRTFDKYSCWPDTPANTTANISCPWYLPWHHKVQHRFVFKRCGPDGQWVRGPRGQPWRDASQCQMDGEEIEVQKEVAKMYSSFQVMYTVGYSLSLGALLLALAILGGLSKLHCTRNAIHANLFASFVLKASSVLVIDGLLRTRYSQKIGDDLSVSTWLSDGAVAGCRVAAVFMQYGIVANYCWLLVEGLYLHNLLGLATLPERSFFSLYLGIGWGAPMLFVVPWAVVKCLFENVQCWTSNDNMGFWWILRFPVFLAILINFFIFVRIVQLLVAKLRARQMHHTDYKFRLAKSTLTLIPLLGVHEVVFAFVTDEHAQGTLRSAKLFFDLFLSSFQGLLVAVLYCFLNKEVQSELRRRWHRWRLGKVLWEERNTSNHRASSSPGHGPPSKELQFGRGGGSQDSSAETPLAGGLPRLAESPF
Outline: as §1

[4] = target: hGLP-1R (Homo sapiens, UniProt P43220); assay: Functional cAMP formation (HTRF) in HEK-293 clonal cells expressing hGLP-1R, 0.1% bovine casein, without or with 1.0% human serum albumin; assay type: cell-based; set-up: expressed in transfected cells; details: 37° C.; for Emax: HEK293, cAMP, percent of maximal response to GLP-1(7-36)NH2, read-out: hGLP-1R Emax, % ± SEM; for EC50: cAMP
hGLP-1R, sequence (P43220 24-463): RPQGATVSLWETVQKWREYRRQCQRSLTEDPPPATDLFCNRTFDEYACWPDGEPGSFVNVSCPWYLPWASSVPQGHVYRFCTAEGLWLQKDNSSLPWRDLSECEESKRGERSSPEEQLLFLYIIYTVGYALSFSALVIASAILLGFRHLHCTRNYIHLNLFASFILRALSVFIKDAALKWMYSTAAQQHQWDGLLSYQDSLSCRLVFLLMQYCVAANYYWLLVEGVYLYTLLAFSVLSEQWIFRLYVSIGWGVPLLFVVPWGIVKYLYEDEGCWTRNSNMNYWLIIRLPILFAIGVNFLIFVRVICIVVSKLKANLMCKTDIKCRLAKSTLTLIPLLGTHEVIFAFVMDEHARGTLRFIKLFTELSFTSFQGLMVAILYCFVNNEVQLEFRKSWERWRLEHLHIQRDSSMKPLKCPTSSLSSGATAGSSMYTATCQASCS
Outline: as §1

[5] = HEK293, cAMP, 37° C., 0.1% bovine casein and 1.0% human serum albumin, read-out: hGIPR Emax, % ± SEM
[6] = 37° C., 0.1% bovine casein (no human serum albumin), geometric mean, read-out: hGIPR EC50, nM (SEM, n)
[7] = human GIPR, geometric mean (SEM, n), read-out: Binding Affinity Ki, nM (SEM, n) hGIPR
[8] = 0.1% bovine casein (no human serum albumin), geometric mean, read-out: hGCGR EC50, nM (SEM, n)
[9] = 0.1% bovine casein and 1.0% human serum albumin, geometric mean (SEM, n), read-out: hGCGR EC50, nM (SEM, n)
[10] = 0.1% bovine casein and 1.0% human serum albumin
[11] = 0.1% bovine casein (no human serum albumin), geometric mean, read-out: hGLP-1R EC50, nM (SEM, n)

Structure (SMILES) | Emax [1, 5] | EC50 [1, 6] | Ki [2, 7] | EC50 [3, 8] | EC50 [3, 9] | Emax [4, 10] | EC50 [4, 11] | Emax ([1]; HEK293, read-out: hGIPR Emax, % ± SEM, cAMP, 37° C., 0.1% bovine casein and 1.0% human serum albumin) | Emax ([1]; HEK293, read-out: hGIPR Emax, % ± SEM, cAMP, 37° C., 0.1% bovine casein, arithmetic mean) | EC50 ([1]; hGIPR EC50, nM (SEM, n), 37° C., 0.1% bovine casein (no human serum albumin), geometric mean) | Ki [2] | EC50 ([3]; hGCGR EC50, nM (SEM, n), 0.1% bovine casein (no human serum albumin), geometric mean) | EC50 ([3]; hGCGR EC50, nM (SEM, n), 0.1% bovine casein and 1.0% human serum albumin, geometric mean (SEM, n)) | EC50 ([4]; hGLP-1R EC50, nM (SEM, n), 0.1% bovine casein (no human serum albumin), geometric mean) | Emax ([1]; HEK293, cAMP, 37° C., 0.1% bovine casein, arithmetic mean, read-out: hGIPR Emax, % ± SEM) | EC50 ([1]; 37° C., 0.1% bovine casein and 1.0% human serum albumin, geometric mean (SEM, n), read-out: hGIPR EC50, nM (SEM, n)) | EC50 ([4]; 0.1% bovine casein and 1.0% human serum albumin, geometric mean (SEM, n), read-out: hGLP-1R EC50, nM (SEM, n))
CCCCCCCCCCCC(=O)N[C@@H](CCC(=O)NCCOCCOCC(=O)NCCOCCOCC(=O)NCCCC[C@H](NC(=O)[C@H](CCCN)NC(=O)[C@H](CC(=O)O)NC(=O)[C@H](CC(C)C)NC(=O)[C@](C)(CC(C)C)NC(=O)[C@@H](NC(=O)C(C)(C)NC(=O)[C@H](Cc1ccncc1)NC(=O)[C@H](CC(=O)O)NC(=O)[C@H](CO)NC(=O)[C@@H](NC(=O)[C@](C)(Cc1ccccc1F)NC(=O)[C@@H](NC(=O)CNC(=O)[C@H](CCC(=O)O)NC(=O)C(C)(C)NC(=O)[C@@H](N)Cc1ccc(O)cc1)[C@@H](C)O)[C@@H](C)O)[C@@H](C)CC)C(=O)N[C@@H](C)C(=O)N[C@@H](CCC(N)=O)C(=O)NC(C)(C)C(=O)N[C@@H](CCC(=O)O)C(=O)N[C@@H](Cc1ccccc1)C(=O)N[C@H](C(=O)N[C@H](CCC(=O)O)C(=O)N[C@@](C)(Cc1ccc(O)cc1)C(=O)N[C@@H](CC(C)C)C(=O)N[C@H](C(=O)N[C@@H](CCCCNC(=O)COCCOCCNC(=O)COCCOCCNC(=O)CC[C@H](NC(=O)CCCCCCCCCCC)C(=O)O)C(=O)NCC(=O)NCC(=O)N1CCC[C@H]1C(=O)N[C@@H](CO)C(=O)N[C@@H](CO)C(=O)NCC(=O)N[C@@H](C)C(=O)N1CCC[C@H]1C(=O)N1CCC[C@H]1C(=O)N1CCC[C@H]1C(=O)N[C@@H](CO)C(N)=O)[C@@H](C)CC)[C@@H](C)CC)C(=O)O [Example 334] | 89% | 0.00987 nM | 0.0195 nM | > 9950 nM | > 9950 nM | 105% | 0.131 nM | – | – | – | – | – | – | – | – | – | –
CC[C@H](C)[C@H](NC(=O)[C@H](CC(C)C)NC(=O)[C@](C)(Cc1ccc(O)cc1)NC(=O)[C@H](CCCCNC(=O)COCCOCCNC(=O)COCCOCCNC(=O)CC[C@H](NC(=O)CCCCCCCCCOc1ccc(C(=O)O)cc1)C(=O)O)NC(=O)[C@@H](NC(=O)[C@H](Cc1ccccc1)NC(=O)[C@H](CCC(=O)O)NC(=O)C(C)(C)NC(=O)[C@H](CCC(N)=O)NC(=O)[C@H](C)NC(=O)[C@H](CCC(N)=O)NC(=O)[C@H](CCCN)NC(=O)[C@H](CC(=O)O)NC(=O)[C@H](CC(C)C)NC(=O)[C@](C)(CC(C)C)NC(=O)[C@@H](NC(=O)C(C)(C)NC(=O)[C@H](Cc1ccncc1)NC(=O)[C@H](CC(=O)O)NC(=O)[C@H](CO)NC(=O)[C@@H](NC(=O)[C@](C)(Cc1ccccc1F)NC(=O)[C@@H](NC(=O)CNC(=O)[C@H](CCC(=O)O)NC(=O)C(C)(C)NC(=O)[C@@H](N)Cc1ccc(O)cc1)[C@@H](C)O)[C@@H](C)O)[C@@H](C)CC)[C@@H](C)CC)C(=O)N[C@@H](CCCCNC(=O)COCCOCCNC(=O)COCCOCCNC(=O)CC[C@H](NC(=O)CCCCCCCCCOc1ccc(C(=O)O)cc1)C(=O)O)C(=O)NCC(=O)NCC(=O)N1CCC[C@H]1C(=O)N[C@@H](CO)C(=O)N[C@@H](CO)C(=O)NCC(=O)N[C@@H](C)C(=O)N1CCC[C@H]1C(=O)N1CCC[C@H]1C(=O)N1CCC[C@H]1C(=O)N[C@@H](CO)C(N)=O [Example 403] | – | – | – | – | – | – | – | 91.7% | 98.1% | 0.00939 nM | 0.0375 nM | > 9950 nM | > 9950 nM | 0.175 nM | – | – | –
CCCCCCCCCCCC(=O)N[C@@H](CCC(=O)NCCOCCOCC(=O)NCCOCCOCC(=O)NCCCC[C@H](NC(=O)[C@H](CO)NC(=O)[C@@H]1CCCN1C(=O)[C@@H]1CCCN1C(=O)[C@@H]1CCCN1C(=O)[C@H](C)NC(=O)CNC(=O)[C@H](CO)NC(=O)[C@H](CO)NC(=O)[C@@H]1CCCN1C(=O)CNC(=O)CNC(=O)[C@H](CCC(=O)O)NC(=O)[C@@H](NC(=O)[C@H](CC(C)C)NC(=O)[C@](C)(Cc1ccc(O)cc1)NC(=O)[C@@H](CCC(=O)O)NC(=O)[C@@H](NC(=O)[C@H](Cc1ccccc1)NC(=O)[C@H](CCCN)NC(=O)C(C)(C)NC(=O)[C@H](CCC(N)=O)NC(=O)[C@H](C)NC(=O)[C@H](CCCCNC(=O)COCCOCCNC(=O)COCCOCCNC(=O)CC[C@H](NC(=O)CCCCCCCCCCC)C(=O)O)NC(=O)[C@H](CCCN)NC(=O)[C@H](CC(=O)O)NC(=O)[C@H](CC(C)C)NC(=O)[C@](C)(CC(C)C)NC(=O)[C@@H](NC(=O)C(C)(C)NC(=O)[C@H](Cc1ccncc1)NC(=O)[C@H](CC(=O)O)NC(=O)[C@H](CO)NC(=O)[C@@H](NC(=O)[C@](C)(Cc1ccccc1F)NC(=O)[C@@H](NC(=O)CNC(=O)[C@H](CCC(=O)O)NC(=O)C(C)(C)NC(=O)[C@@H](N)Cc1ccc(O)cc1)[C@@H](C)O)[C@@H](C)O)[C@@H](C)CC)[C@@H](C)CC)[C@@H](C)CC)C(N)=O)C(=O)O [Example 418] | 87.2% | 0.00599 nM | 0.0174 nM | > 9950 nM | > 9950 nM | 98.8% | 0.0603 nM | – | – | – | – | – | – | – | 91% | 0.126 nM | 1.72 nM

Source: patent US20230265151A1, “GIP/GLP1 CO-AGONIST COMPOUNDS” (priority 2020, published 2023)
